The values below are quoted from earlier work in patent publication US20120294924A1, “Peptide-Lipid Conjugates And Uses Thereof” (priority 2011, published 2012).

No end group written: not given here.

The conditions of the data set: qualitative statement, Li et al., Biochimica et Biophysica Acta 1768:411-418, 2007.

In the case of “HAEHKVKIGVEQKYGQFPQGTEVTYTCSGNYFLM [Sushi-3, 34mer peptide from a Sushi domain of horseshoe crab Factor C]”, the “binding to LPS” value is recorded as “bind to LPS”.
